Results as given in US9662322B2 (TEVA PHARMACEUTICAL INDUSTRIES, LTD., priority 2014, dated 2017).

Experiments:
Format in all cases: in vivo, human
patients with RRMS = assay: Post hoc analysis of pooled ALLEGRO and BRAVO trials by baseline EDSS subgroup; conditions: for Annualized Relapse Rate, Ratio: LAQ 0.6 mg vs PBO
Source text: The observed effect of LAQ on Confirmed Disability Progression (CDP) is disproportionately larger than would be predicted by the observed LAQ effect on relapse rate reduction.
ALELGRO and BRAVO trials described above enrolled ambulatory patients with RRMS, aged 18-55 years, with EDSS scores ≦5.5. Patients included in the study had • 1. ≧1 relapse in the previous year, or • 2. 2 relapses in the previous 2 years, or • 3. 1 relapse in the previous 1-2 years and ≧1 GdE lesion in the previous year.
Patients were randomized 1:1 to LAQ 0.6 mg or PBO in the ALLEGRO study; in BRAVO patients were randomized 1:1:1 LAQ 0.6 or PBO or weekly interferon β 1a 30 μg.
This post hoc analysis include patients randomized to LAQ 0.6 mg or PBO only. Endpoints include ARR, time to CDP (defined as an increase from baseline in EDSS score of ≧1 point if baseline EDSS is ≦5, or of ≧0.5 point if baseline EDSS is >5), sustained for 3 or 6 months; and MSFC components including the Timed 25-Foot Walk (T25FW) test.
LAQ vs. […] Adjusted mean z-score differences and 95% CIs were evaluated by ANCOVA.
MRI endpoints included brain atrophy measured percent brain volume change (PBVC), and cumulative numbers of gadolinium-enhancing (GdE) and new T2 lesions at months 12 and 24.

[1] = tested on: subjects with relapsing remitting multiple sclerosis (RRMS); assay: ALLEGRO Phase III trial: patient-reported fatigue and health status (MFIS, SF-36, EQ5D); conditions: over 24 months
Protocol: The following assessments were performed at specified time points: • 1. Vital signs were measured at each study visit. • 2. A physical examination is performed at months −1 (screening), 0 (baseline) 1, 3, 6, 12, 18 and 24 (termination/early discontinuation core study). In case of the 6 months extended study, additional examination was performed at month 30 (termination/early discontinuation of extended study). • 3. The following safety clinical laboratory tests were performed: • a. Complete blood count (CBC) with differential—at all scheduled visits. A reticulocyte count was added to the CBC at months 0 (baseline) and 24/30 (termination/early discontinuation). • b. […] Adverse Events (AEs) are monitored throughout the study. • 9. Concomitant medications are monitored throughout the study. • 10. […] MS functional Composite (MSFC) was assessed at months −1 (screening) (three practices for training purposes only), at month 0 (baseline), 6, 12, 18 and 24 (termination/early discontinuation). […] Subject-reported fatigue was assessed by the Modified Fatigue Impact Scale (MFIS) at months 0, 6, 12, 18, and 24 (termination/early discontinuation). […] The general health status was assessed by the EuroQoL (EQ5D) questionnaire at month 0 (baseline) and month 24 (termination/early discontinuation of the study). […]

[2] = tested on: subjects with relapsing remitting multiple sclerosis (RRMS); assay: ALLEGRO Phase III trial: safety and tolerability
Protocol: The following assessments were performed at specified time points: • 1. Vital signs were measured at each study visit. • 2. A physical examination is performed at months −1 (screening), 0 (baseline) 1, 3, 6, 12, 18 and 24 (termination/early discontinuation core study). In case of the 6 months extended study, additional examination was performed at month 30 (termination/early discontinuation of extended study). • 3. The following safety clinical laboratory tests were performed: • a. Complete blood count (CBC) with differential—at all scheduled visits. A reticulocyte count was added to the CBC at months 0 (baseline) and 24/30 (termination/early discontinuation). • b. Serum chemistry (including electrolytes, liver enzymes, direct and total bilirubin and pancreatic amylase and CPK), and urinalysis—at all scheduled visits. • c. A rapid urine β-hCG test was performed in women of child-bearing potential at baseline (month 0) and at each scheduled study visit thereafter (at site). • d. β-hCG in women of child-bearing potential was performed at all scheduled visits. • e. Starting after visit Month 3 a rapid urine β-hCG test was performed in women of child-bearing potential every 28 (±2) days. The subject was contacted by telephone within 72 hours after the test was scheduled to be performed and asked specific questions regarding the test. In case of suspected pregnancy (positive urine β-hCG test result), the caller made sure that the study drug has been discontinued and the subject was instructed to arrive at the site as soon as possible with all study drugs. • 4. Markers of inflammation (serum conventional C-reactive protein and fibrinogen)—at screening, baseline and all scheduled visits thereafter. • 5. During the first 3 months periodical phone calls were placed by the site personnel every two weeks. […] ECG was performed at months −1 (screening; additional recording, up to 30 minutes apart is performed if QTc is […] 450 msec), (baseline; three recordings, 15 minutes apart), 1, 2, 3, 6, 12, 18 and 24 (termination/early discontinuation). In case of the 6 months extended study, ECG is performed at month 30 (termination/early discontinuation of the extended study). • 7. Chest X-ray is performed at months −1 (screening), (if not performed within 7 months prior to the screening visit). • 8. Adverse Events (AEs) are monitored throughout the study. • 9. Concomitant medications are monitored throughout the study. • 10. Neurological evaluations, including Expanded Disability Status Scale (EDSS), 25 foot walk test/Ambulation Index (AI), Functional systems (FS) are performed at months −1 (screening), 0 (baseline) and every 3 months during the study and the extended study period. • 11. MS functional Composite (MSFC) was assessed at months −1 (screening) (three practices for training purposes only), at month 0 (baseline), 6, 12, 18 and 24 (termination/early discontinuation). In case of the 6 months extended study, the last MSFC was performed at months 30 (termination/early discontinuation of the extended study). • 12. Subject-reported fatigue was assessed by the Modified Fatigue Impact Scale (MFIS) at months 0, 6, 12, 18, and 24 (termination/early discontinuation). In case of the 6 months extended study, additional MFIS was performed at month 30 (termination/early discontinuation of the extended study). • 13. The general health status was assessed by the EuroQoL (EQ5D) questionnaire at month 0 (baseline) and month 24 (termination/early discontinuation of the study). In case of the 6 months extended study, the last EuroQoL (EQ5D) was performed at month 30 (termination/early discontinuation of the extended study) instead of month 24. • 14. The general health status was assessed by the Short-Form general health survey (SF-36) subject-reported questionnaire at month 0 (baseline) and every 6 months thereafter, until termination/early discontinuation. • 15. […]

## CCN(C(=O)c1c(O)c2c(Cl)cccc2n(C)c1=O)c1ccccc1 [Laquinimod, laquinimod]
Patients with RRMS; baseline EDSS >3
  T25FW time increase after 24 months (adjusted mean): 1.9 s
Patients with RRMS; baseline EDSS >3.0
  9HPT Change from Baseline to Month 24, Adj. Mean Diff.: −1.590
  Brain Atrophy as defined by PBVC, adjusted mean difference: 0.39
  Cumulative GdE T1 Lesions at Months 12 and 24, Rate Ratio: 0.83
  Cumulative New/Enlarging T2 Lesions at Months 12 and 24, Rate Ratio: 0.75
  Disability as Assessed by MSFC z-Score at Month 24, adjusted mean difference: 0.25
  PASAT Change from Baseline to Month 24, Adj. Mean Diff.: 0.586
  Time to 3-month CDP, Hazard Ratio: 0.60
  Time to 6-month CDP, Hazard Ratio: 0.47
  Annualized Relapse Rate, Ratio: 0.75
Patients with RRMS; baseline EDSS >3 (worsening MS), vs PBO
  Reduction in 6-month CDP: 53%
Patients with RRMS; baseline EDSS >3, vs PBO
  Reduction of 3-month CDP: 40%
  Reduction of ARR: 25%
Patients with RRMS; baseline EDSS >3, vs PBO, 24 months
  Improvement / treatment effect size on the T25FW component: 59%
Patients with RRMS; baseline EDSS >3.0, listed as LAQ
  T25FW Change from Baseline to Month 24, Adj. Mean Diff.: -2.79 s
Patients with RRMS; baseline EDSS >3 with CDP, vs PBO
  T25FW treatment effect among subjects who experienced CDP: 8.6 s
Patients with RRMS; baseline EDSS ≦3
  Treatment differences in T25FW: No treatment differences
Patients with RRMS; baseline EDSS ≦3.0
  9HPT Change from Baseline to Month 24, Adj. Mean Diff.: −1.108
  Brain Atrophy as defined by PBVC, adjusted mean difference: 0.34
  Cumulative GdE T1 Lesions at Months 12 and 24, Rate Ratio: 0.66
  Cumulative New/Enlarging T2 Lesions at Months 12 and 24, Rate Ratio: 0.77
  Disability as Assessed by MSFC z-Score at Month 24, adjusted mean difference: −0.02
  PASAT Change from Baseline to Month 24, Adj. Mean Diff.: 0.302
  T25FW Change from Baseline to Month 24, Adj. Mean Diff.: 0.055 s
  Time to 3-month CDP, Hazard Ratio: 0.69
  Time to 6-month CDP, Hazard Ratio: 0.60
  Annualized Relapse Rate, Ratio: 0.80
[1]
  SF-36 physical component summary (PCS) course: remained stable
[2]; 0.6 mg daily, 24 months
  Deaths: No deaths
[2]; human, in vivo, 24 months
  ALT elevations ≧5×ULN, patients: 8
  Abdominal pain, % of patients: 5.8%
  Adverse events, number: 3309
  Appendicitis: 5 cases
  Back pain, % of patients: 16.4%
  Cough, % of patients: 7.5%
  Neoplasms: 8 cases
  Patients reporting 1 or more adverse events: 87%
  Serious adverse events (SAEs) reported, total: 122
  Shift to ALT ≧3×ULN and <5×ULN, % of patients: 4.9%
  Study discontinuation associated with these adverse events (abdominal pain, back pain, cough): 3%
  Treatment discontinuation due to ALT≧3 and <5×ULN, patients: 7
[2]; in vivo
  Liver failure: no cases of liver failure
